Experimental data from US20160338971A1, “NANO CO-ENCAPSULATION FOR THE PREVENTION AND TREATMENT OF VARIOUS DISORDERS” (priority 2015, published 2016).

Each compound was assayed on Human Pancreatic cancer cells (MPanc) (assay: Anti-cancer efficacy in athymic nude mice (subcutaneous pancreatic tumor implant)). Settings: 10 ug/implant in Matrigel near the tumor implant, tumors excised after 2 weeks, n=6 per group, Control 291 ± 25.
Format: in vivo
Excerpt: Human Pancreatic cancer cells (MPanc) were implanted subcutaneously in nude mice at 1 million cells per site and after tumor growth to 150-200 mm3, animals were implanted with the various Nano composites near by the tumor implant.
The preceding data represents mean tumor weight±Standard Deviation (SD), n=6 per group, after 2 weeks of pancreatic cancer cell implant at 1 million per animals. Nano composites were implanted in a Matrigel near by the tumor implants

Compound | Mean Pancreatic Tumor Weight (mg) ± SD
Oc1ccc(C=Cc2cc(O)cc(O)c2)cc1 [Resveratrol] | 198.44 ± 18.9 mg
C=CCSSC=CC[S+]([O-])CC=C (mixture of isomers) [Ajoene] | 188.45 ± 15.6 mg
O=C1O[C@H]2[C@@H]3OC(=O)c4cc(O)c(O)c(O)c4-c4c(O)c(O)c5oc(=O)c6c(c(O)c(O)c7oc(=O)c4c5c76)-c4c(cc(O)c(O)c4O)C(=O)OC[C@H]3OC(O)[C@@H]2OC(=O)c2cc(O)c(O)c(O)c2-c2c1cc(O)c(O)c2O (mixture of isomers) [Punicalagin] | 146.44 ± 16.4 mg
C[S+]([O-])CCCCN=C=S (centres unmarked) [Sulforaphan] | 195.80 ± 21.2 mg
epigallocatechin-3-gallate [EGCG] | 145.11 ± 17.8 mg
